Source: the supplement of paper PMC10307832

Assays:
Experiment in all cases: relative viability (nuclei count vs DMSO), 5 days (fraction); higher = more cells survive
NCI-H2228 = tested on: NCI-H2228
Procedure, shortened: (§1)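 Nuclei were stained with Hoechst during a one-step fixation (final 0.05% Triton X-100, 1% formaldehyde, 1 ug/ml Hoechst) carried out 5 days after dosing, then counted on 4× images. The cells, lung cancer lines in 1536-well plates, had been dosed by pin tool the day after seeding with one drug alone or a fixed anchor-drug dose plus five library-drug doses (not always all listed) in √10 steps. Relative viability is the nuclei count in treated wells divided by that in vehicle wells, and each value is the median of duplicate plates.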

ABC-1 = tested on: ABC-1
Procedure, shortened: as §1

COR-L23 = tested on: COR-L23
Procedure, shortened: as §1

NCI-H1793 = tested on: NCI-H1793
Procedure, shortened: as §1

EMC-BAC-2 = tested on: EMC-BAC-2
Procedure, shortened: as §1

NCI-H2023 = tested on: NCI-H2023
Procedure, shortened: as §1

HCC-15 = tested on: HCC-15
Procedure, shortened: as §1

NCI-H2405 = tested on: NCI-H2405
Procedure, shortened: as §1

HCC-78 = tested on: HCC-78
Procedure, shortened: as §1

LC-2-ad = tested on: LC-2-ad
Procedure, shortened: as §1

NCI-H2126 = tested on: NCI-H2126
Procedure, shortened: as §1

HCC-366 = tested on: HCC-366
Procedure, shortened: as §1

NCI-H1993 = tested on: NCI-H1993
Procedure, shortened: as §1

NCI-H1944 = tested on: NCI-H1944
Procedure, shortened: as §1

HOP-62 = tested on: HOP-62
Procedure, shortened: as §1

ChaGo-K-1 = tested on: ChaGo-K-1
Procedure, shortened: as §1

SK-LU-1 = tested on: SK-LU-1
Procedure, shortened: as §1

NCI-H23 = tested on: NCI-H23
Procedure, shortened: as §1

NCI-H838 = tested on: NCI-H838
Procedure, shortened: as §1

NCI-H358 = tested on: NCI-H358
Procedure, shortened: as §1

NCI-H1395 = tested on: NCI-H1395
Procedure, shortened: as §1

HARA = tested on: HARA
Procedure, shortened: as §1

## CC(=O)O[C@@]12CO[C@@H]1C[C@H](O)[C@@]1(C)C(=O)[C@H](O)C3=C(C)[C@@H](OC(=O)[C@H](O)[C@@H](NC(=O)OC(C)(C)C)c4ccccc4)C[C@@](O)([C@@H](OC(=O)c4ccccc4)[C@H]21)C3(C)C [Docetaxel] + CC(=O)c1c(C)c2cnc(Nc3ccc(N4CCNCC4)cn3)nc2n(C2CCCC2)c1=O [Palbociclib] (partner 0.5 µM)
NCI-H2228; first compound 0.0002 µM
  relative viability: 0.52
NCI-H2228; first compound 0.000632 µM
  relative viability: 0.251
NCI-H2228; first compound 0.002 µM
  relative viability: 0.195
NCI-H2228; first compound 0.006325 µM
  relative viability: 0.137
NCI-H2228; first compound 0.02 µM
  relative viability: 0.129
ABC-1; first compound 0.0002 µM
  relative viability: 0.568
ABC-1; first compound 0.000632 µM
  relative viability: 0.587
ABC-1; first compound 0.002 µM
  relative viability: 0.539
ABC-1; first compound 0.006325 µM
  relative viability: 0.444
ABC-1; first compound 0.02 µM
  relative viability: 0.437
COR-L23; first compound 0.0002 µM
  relative viability: 0.299
COR-L23; first compound 0.000632 µM
  relative viability: 0.262
COR-L23; first compound 0.002 µM
  relative viability: 0.142
COR-L23; first compound 0.006325 µM
  relative viability: 0.141
COR-L23; first compound 0.02 µM
  relative viability: 0.108
NCI-H1793; first compound 0.0002 µM
  relative viability: 0.242
NCI-H1793; first compound 0.000632 µM
  relative viability: 0.358
NCI-H1793; first compound 0.002 µM
  relative viability: 0.347
NCI-H1793; first compound 0.006325 µM
  relative viability: 0.266
NCI-H1793; first compound 0.02 µM
  relative viability: 0.208
EMC-BAC-2; first compound 0.0002 µM
  relative viability: 0.511
EMC-BAC-2; first compound 0.000632 µM
  relative viability: 0.536
EMC-BAC-2; first compound 0.002 µM
  relative viability: 0.441
EMC-BAC-2; first compound 0.006325 µM
  relative viability: 0.363
EMC-BAC-2; first compound 0.02 µM
  relative viability: 0.31
NCI-H2023; first compound 0.0002 µM
  relative viability: 0.357
NCI-H2023; first compound 0.000632 µM
  relative viability: 0.339
NCI-H2023; first compound 0.002 µM
  relative viability: 0.101
NCI-H2023; first compound 0.006325 µM
  relative viability: 0.0906
NCI-H2023; first compound 0.02 µM
  relative viability: 0.0705
HCC-15; first compound 0.0002 µM
  relative viability: 0.643
HCC-15; first compound 0.000632 µM
  relative viability: 0.383
HCC-15; first compound 0.002 µM
  relative viability: 0.228
HCC-15; first compound 0.006325 µM
  relative viability: 0.247
NCI-H2405; first compound 0.0002 µM
  relative viability: 0.525
NCI-H2405; first compound 0.000632 µM
  relative viability: 0.513
NCI-H2405; first compound 0.002 µM
  relative viability: 0.456
NCI-H2405; first compound 0.006325 µM
  relative viability: 0.401
NCI-H2405; first compound 0.02 µM
  relative viability: 0.29
HCC-78; first compound 0.0002 µM
  relative viability: 0.388
HCC-78; first compound 0.000632 µM
  relative viability: 0.481
HCC-78; first compound 0.002 µM
  relative viability: 0.435
HCC-78; first compound 0.006325 µM
  relative viability: 0.457
HCC-78; first compound 0.02 µM
  relative viability: 0.4
LC-2-ad; first compound 0.0002 µM
  relative viability: 0.438
LC-2-ad; first compound 0.000632 µM
  relative viability: 0.448
LC-2-ad; first compound 0.002 µM
  relative viability: 0.334
LC-2-ad; first compound 0.006325 µM
  relative viability: 0.284
LC-2-ad; first compound 0.02 µM
  relative viability: 0.233
NCI-H2126; first compound 0.0002 µM
  relative viability: 0.378
NCI-H2126; first compound 0.000632 µM
  relative viability: 0.356
NCI-H2126; first compound 0.002 µM
  relative viability: 0.332
NCI-H2126; first compound 0.006325 µM
  relative viability: 0.261
HCC-366; first compound 0.0002 µM
  relative viability: 0.327
HCC-366; first compound 0.000632 µM
  relative viability: 0.0952
HCC-366; first compound 0.002 µM
  relative viability: 0.066
HCC-366; first compound 0.006325 µM
  relative viability: 0.0347
HCC-366; first compound 0.02 µM
  relative viability: 0.0219
NCI-H1993; first compound 0.0002 µM
  relative viability: 0.799
NCI-H1993; first compound 0.000632 µM
  relative viability: 0.708
NCI-H1993; first compound 0.002 µM
  relative viability: 0.686
NCI-H1993; first compound 0.006325 µM
  relative viability: 0.538
NCI-H1993; first compound 0.02 µM
  relative viability: 0.307
NCI-H1944; first compound 0.0002 µM
  relative viability: 0.359
NCI-H1944; first compound 0.000632 µM
  relative viability: 0.268
NCI-H1944; first compound 0.002 µM
  relative viability: 0.314
NCI-H1944; first compound 0.006325 µM
  relative viability: 0.22
NCI-H1944; first compound 0.02 µM
  relative viability: 0.14
HOP-62; first compound 0.0002 µM
  relative viability: 0.461
HOP-62; first compound 0.000632 µM
  relative viability: 0.353
HOP-62; first compound 0.002 µM
  relative viability: 0.284
HOP-62; first compound 0.02 µM
  relative viability: 0.156
ChaGo-K-1; first compound 0.0002 µM
  relative viability: 0.883
ChaGo-K-1; first compound 0.000632 µM
  relative viability: 0.677
ChaGo-K-1; first compound 0.002 µM
  relative viability: 0.418
ChaGo-K-1; first compound 0.006325 µM
  relative viability: 0.313
SK-LU-1; first compound 0.0002 µM
  relative viability: 0.358
SK-LU-1; first compound 0.000632 µM
  relative viability: 0.315
SK-LU-1; first compound 0.002 µM
  relative viability: 0.409
SK-LU-1; first compound 0.006325 µM
  relative viability: 0.265
SK-LU-1; first compound 0.02 µM
  relative viability: 0.19
NCI-H23; first compound 0.0002 µM
  relative viability: 0.562
NCI-H23; first compound 0.000632 µM
  relative viability: 0.523
NCI-H23; first compound 0.002 µM
  relative viability: 0.348
NCI-H23; first compound 0.006325 µM
  relative viability: 0.168
NCI-H23; first compound 0.02 µM
  relative viability: 0.163
NCI-H838; first compound 0.0002 µM
  relative viability: 0.223
NCI-H838; first compound 0.000632 µM
  relative viability: 0.251
NCI-H838; first compound 0.002 µM
  relative viability: 0.209
NCI-H838; first compound 0.006325 µM
  relative viability: 0.176
NCI-H838; first compound 0.02 µM
  relative viability: 0.133
NCI-H358; first compound 0.0002 µM
  relative viability: 0.16
NCI-H358; first compound 0.000632 µM
  relative viability: 0.173
NCI-H358; first compound 0.002 µM
  relative viability: 0.142
NCI-H358; first compound 0.006325 µM
  relative viability: 0.126
NCI-H358; first compound 0.02 µM
  relative viability: 0.111
NCI-H1395; first compound 0.0002 µM
  relative viability: 0.589
NCI-H1395; first compound 0.000632 µM
  relative viability: 0.638
NCI-H1395; first compound 0.002 µM
  relative viability: 0.5
NCI-H1395; first compound 0.006325 µM
  relative viability: 0.42
NCI-H1395; first compound 0.02 µM
  relative viability: 0.274
HARA; first compound 0.0002 µM
  relative viability: 0.222
HARA; first compound 0.000632 µM
  relative viability: 0.189
HARA; first compound 0.002 µM
  relative viability: 0.168
HARA; first compound 0.006325 µM
  relative viability: 0.128
HARA; first compound 0.02 µM
  relative viability: 0.0982
